# pIC50: −log10 of the molar value.
# Assays:
# [1] = tested on: Ba/F3 EGFR-D770-N771ins_SVD xenograft; assay: In vivo pharmacodynamic study in mouse pro-B cell Ba/F3 EGFR-D770-N771ins_SVD xenograft model; settings: 40 mg/kg, oral, 1 time/day, 14 days; for Tumor volume (mm3, Mean ± SD) Day 14: BALB/cA nude mice
# Description: In Vivo Pharmacodynamic Study of the Compound of the Present Invention in the Mouse Pro-B Cell Ba/F3 EGFR-D770-N771ins_SVD Xenograft Model
# The in vivo efficacy of the compound in the mouse pro-B cell Ba/F3 EGFR-D770-N771ins_SVD xenograft model was evaluated.
# BALB/cA nude mice (6-8 weeks old, female) were purchased from Shanghai Sino-British SIPPR/BK Lab Animal Co., Ltd.
# a. […] The resuscitated cells were placed in the cell culture flasks (cell type, date, the name of the culturing person and the like were marked on the flask wall), and incubated in a CO2 incubator (the incubator temperature was 37° C., and the CO2 concentration was 5%).
# b. The cells were passaged every three days. After passage, the cells were further incubated in the CO2 incubator. The process was repeated until the number of cells met the requirements of the in vivo pharmacodynamic study.
# c. The cultured cells were collected and counted by the automatic cell counter. According to the counting results, the cells were resuspended in PBS to prepare a cell suspension (density: 2×10^7 cells/mL), which was placed in an ice box for later use.
# d. The test nude mice were inoculated in turn (0.1 mL of cell suspension per mouse).
# a. Tumor was measured on Day 8 to Day 14 after inoculation depending on the tumor growth, and tumor size was calculated.
# Tumor volume calculation: tumor volume (mm^3)=length (mm)×width (mm)×width (mm)/2
# b. According to the body weight and tumor size of the tumor-bearing mouse, the mice were randomly grouped (5 mice per group).
# d. The tumor was measured and the mouse was weighed twice a week after the test drug was administrated.
# Calculation of the Tumor Growth Inhibition Rate TGI (%) of the Compound: […]
# EGFR D770_N771insNPG = EGFR D770_N771insNPG (Homo sapiens, UniProt P00533, INS770NPG); assay: TR-FRET inhibition of kinase activity of EGFR exon 20 insertion mutation; type: biochemical
# Sequence of EGFR D770_N771insNPG (P00533 with tags, fused parts or gaps INS770NPG limits assumed): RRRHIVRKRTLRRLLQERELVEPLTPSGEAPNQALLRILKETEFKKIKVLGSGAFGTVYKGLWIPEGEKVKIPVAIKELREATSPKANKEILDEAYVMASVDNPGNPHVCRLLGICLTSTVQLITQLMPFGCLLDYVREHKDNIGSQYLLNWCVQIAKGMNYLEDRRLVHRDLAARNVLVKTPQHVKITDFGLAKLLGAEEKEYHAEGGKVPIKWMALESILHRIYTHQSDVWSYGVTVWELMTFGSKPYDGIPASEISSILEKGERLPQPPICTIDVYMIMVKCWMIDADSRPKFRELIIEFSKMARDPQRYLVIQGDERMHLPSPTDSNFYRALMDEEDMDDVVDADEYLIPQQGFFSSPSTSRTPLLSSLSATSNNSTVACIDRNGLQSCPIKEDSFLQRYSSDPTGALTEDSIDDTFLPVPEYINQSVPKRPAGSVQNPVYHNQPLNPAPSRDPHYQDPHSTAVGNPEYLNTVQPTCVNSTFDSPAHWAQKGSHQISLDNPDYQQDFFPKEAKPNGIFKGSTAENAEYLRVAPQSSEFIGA
# A431 cell line = assay: Proliferation of A431 cell line (CellTiter-Glo); type: cell-based; settings: Homo sapiens, A-431, 72 h
# [2] = biological target: Ba/F3 EGFR-D770-N771ins_SVD (Homo sapiens, UniProt P00533, DUP768-770, cells depend on it); assay: Proliferation of Ba/F3 EGFR mutant cell line (CellTiter-Glo); type: cell-based, mouse; settings: 72 h to 144 h, read-out: Ba/F3 EGFR-D770-N771ins_SVD IC50
# Sequence of Ba/F3 EGFR-D770-N771ins_SVD (P00533 with tags, fused parts or gaps DUP768-770): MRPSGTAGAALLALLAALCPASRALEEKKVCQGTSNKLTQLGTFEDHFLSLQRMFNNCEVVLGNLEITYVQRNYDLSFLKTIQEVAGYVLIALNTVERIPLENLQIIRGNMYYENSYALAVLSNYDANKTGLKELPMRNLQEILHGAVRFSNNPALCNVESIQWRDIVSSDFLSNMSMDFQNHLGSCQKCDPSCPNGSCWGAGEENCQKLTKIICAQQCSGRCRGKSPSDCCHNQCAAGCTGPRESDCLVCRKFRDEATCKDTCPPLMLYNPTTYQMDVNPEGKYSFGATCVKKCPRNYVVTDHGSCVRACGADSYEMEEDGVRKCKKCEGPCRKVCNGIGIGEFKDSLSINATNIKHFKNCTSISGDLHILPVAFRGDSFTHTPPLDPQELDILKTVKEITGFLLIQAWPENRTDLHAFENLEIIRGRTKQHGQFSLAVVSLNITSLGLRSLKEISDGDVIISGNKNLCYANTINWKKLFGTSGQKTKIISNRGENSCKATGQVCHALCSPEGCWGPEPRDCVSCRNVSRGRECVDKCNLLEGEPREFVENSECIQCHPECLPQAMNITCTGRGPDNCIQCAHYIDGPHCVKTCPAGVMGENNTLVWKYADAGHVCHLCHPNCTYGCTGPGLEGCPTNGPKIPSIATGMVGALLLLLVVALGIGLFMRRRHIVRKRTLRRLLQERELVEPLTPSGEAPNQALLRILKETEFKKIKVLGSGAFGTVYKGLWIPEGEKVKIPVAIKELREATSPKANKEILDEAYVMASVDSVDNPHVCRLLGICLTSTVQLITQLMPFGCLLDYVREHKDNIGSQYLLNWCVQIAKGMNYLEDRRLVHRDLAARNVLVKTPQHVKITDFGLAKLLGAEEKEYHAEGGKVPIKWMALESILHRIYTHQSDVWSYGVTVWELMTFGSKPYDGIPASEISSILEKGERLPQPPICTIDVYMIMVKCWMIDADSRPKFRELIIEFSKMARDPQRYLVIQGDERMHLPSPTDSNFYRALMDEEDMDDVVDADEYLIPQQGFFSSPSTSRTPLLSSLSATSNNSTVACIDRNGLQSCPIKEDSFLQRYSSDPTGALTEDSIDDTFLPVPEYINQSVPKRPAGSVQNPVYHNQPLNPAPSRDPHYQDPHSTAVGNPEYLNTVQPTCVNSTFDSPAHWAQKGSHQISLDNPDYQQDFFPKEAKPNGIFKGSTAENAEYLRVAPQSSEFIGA
# [3] = Plasma stability test, human plasma; type: in vitro ADME; settings: 37° C.
# Description: (§1) Test Example 5. Plasma Stability Test
# (§2) The objective of this experiment is to determine the stability of the compounds of the examples in the plasma of mouse, rat and human.
# (§3) 1. Plasma preparation: Animal or human whole blood was collected, placed into a test tube containing anticoagulant, and centrifuged at 3500 rpm for 10 min. The light yellow plasma in the upper layer was collected.
# (§4) 2. 1 mM test compound (m/M/V=C), the compound was weighed and formulated into stock solution with DMSO.
# (§5) 1. 398 μL of plasma and 2 μL of 1 mM compound (test compound) were added successively to a 96-well plate, and incubated at 37° C.
# (§6) 2. 50 μL of solution was taken out at 0, 15, 30, 60, 120 min, to which 400 μL of methanol stop solution containing internal standard was added.
# (§7) 3. The solution was centrifuged (3220 g, 30 min). 50 μL of supernatant was taken out, to which 50 μL of DDH2O was added to dilute. The resulting solution was injected into a LC-MS/MS.
# [4] = Plasma stability test, rat plasma; type: in vitro ADME; settings: 37° C.
# Description: as §1, §2, §3, §4, §5, §6, §7
# [5] = Plasma stability test, mouse plasma; type: in vitro ADME; settings: 37° C.
# Description: as §1, §2, §3, §4, §5, §6, §7
SMILES,T/C (%) Day 14 [1] [%],TGI (%) Day 14 [1] [%],"Tumor volume (mm3, Mean ± SD) Day 14 [1] [mm3]",pIC50 (EGFR D770_N771insNPG),pIC50 (A431 cell line),GI50 [2] [nM],further results
C=CC(=O)Nc1cc(Nc2nccc(-c3cn(C)c4ccccc34)n2)c(OC)cc1N(C)CCN(C)C [ADZ9291],48.40,51.60,935 ± 176,–,–,–,–
"C=CC(=O)Nc1cc(Nc2ncc(-c3ncco3)c(-c3cn(C4CC4)c4ccccc34)n2)c(OC)cc1N(C)CCN(C)C [Example 37, N-(5-((4-(1-Cyclopropyl-1H-indol-3-yl)-5-(oxazol-2-yl)pyrimidin-2-yl)amino)-2-((2-(dimethylamino)ethyl)(methyl)amino)-4-methoxyphenyl)acrylamide]",25.75,74.25,499 ± 151,9.25,7.18,16.6,–
"C=CC(=O)Nc1cc(Nc2ncc(C#N)c(-c3cn(C4CC4)c4ccccc34)n2)c(OC)cc1N(C)CCN(C)C [Example 67, N-(5-((5-Cyano-4-(1-cyclopropyl-1H-indol-3-yl)pyrimidin-2-yl)amino)-2-((2-(dimethylamino)ethyl)(methyl)amino)-4-methoxyphenyl)acrylamide]",10.94,89.06,212 ± 44,9.85,7.02,10.4,half-life at 5 µM [3]: 1.38 h; Residual rate (%) 0 min ([3]; 0 min): 100.00%; Residual rate (%) 15 min ([3]; 15 min): 93.86%; Residual rate (%) 30 min ([3]; 30 min): 85.71%; Residual rate (%) 60 min ([3]; 60 min): 67.74%; Residual rate (%) 120 min ([3]; 120 min): 37.38%; half-life at 5 µM [4]: 1.23 h; Residual rate (%) 0 min ([4]; 0 min): 100.00%; Residual rate (%) 15 min ([4]; 15 min): 90.61%; Residual rate (%) 30 min ([4]; 30 min): 81.14%; Residual rate (%) 60 min ([4]; 60 min): 59.66%; Residual rate (%) 120 min ([4]; 120 min): 33.25%; half-life at 5 µM [5]: 0.665 h; Residual rate (%) 0 min ([5]; 0 min): 100.00%; Residual rate (%) 15 min ([5]; 15 min): 88.69%; Residual rate (%) 30 min ([5]; 30 min): 69.92%; Residual rate (%) 60 min ([5]; 60 min): 36.29%; Residual rate (%) 120 min ([5]; 120 min): 9.06%
"C=CC(=O)Nc1cc(Nc2ncc(-c3ncco3)c(-c3cn(C)c4ccccc34)n2)c(OC)cc1N(C)CCN(C)C [Example 81, N-(2-((2-(Dimethylamino)ethyl)(methyl)amino)-4-methoxy-5-((4-(1-methyl-1H-indol-3-yl)-5-(oxazol-2-yl)pyrimidin-2-yl)amino)phenyl)acrylamide]",17.23,82.77,334 ± 121,9.33,7.18,22.9,–
